{"source": "patent US20050120392A1", "about": "“Transgenic zebrafish models for thrombosis” (priority 2002, published 2005)", "key": {"zebrafish larvae": {"system": "zebrafish larvae", "assay_type": "in vivo", "protocol": "Only larvae homozygous for the GPIIb-eGFP transgene, were used for the assay. Soaking experiments with anti-thrombotic compounds were initiated when larvae were 5 dpf and injections with thrombotic agents were performed the next day. Injection of compounds into the heart cavity of larvae was performed using a glass-pulled capillary needle (˜15 μm in diameter at the tip) attached to a microinjector. Phenol red (0.2%) was routinely used for all injections to ensure accurate injection into the heart cavity. All larvae were anaesthetized with tricaine during the injection and returned to fresh fish water before analysis. Fluorescence was observed using a stereomicroscope with a GFP specific filter set."}, "platelets": {"system": "platelets", "assay": "In vivo thrombosis assay: thrombotic agent injected into heart cavity of TG(GPIIb:eGFP) larvae", "design": "species or system zebrafish", "protocol": "Only larvae homozygous for the GPIIb-eGFP transgene, were used for the assay. […] Injection of compounds into the heart cavity of larvae was performed using a glass-pulled capillary needle ( 15 μm in diameter at the tip) attached to a microinjector. Phenol red (0.2%) was routinely used for all injections to ensure accurate injection into the heart cavity. All larvae were anaesthetized with tricaine during the injection and returned to fresh fish water before analysis. Fluorescence was observed using a stereomicroscope with a GFP specific filter set. […] The counts were done for sections of the larvae (FIG. 2) and later totaled for the larvae. […] In these experiments (morpholino), control larvae (ADP alone) had no moving platelets. TG(GPIIb:GFP) zebrafish were bred to produce homozygous TG(GPIIb:eGFP) embryos. […] At 6 dpf, the larvae have developed a swim bladder and most (or all) of their yolk sac has disappeared."}, "[1]": {"system": "thrombin-induced platelet aggregation", "assay": "In vivo anti-thrombotic assay: thrombin-induced aggregate formation in TG(GPIIb:eGFP) larvae", "design": "species or system zebrafish", "protocol": "(§1) Only larvae homozygous for the GPIIb-eGFP transgene, were used for the assay. […] Injection of compounds into the heart cavity of larvae was performed using a glass-pulled capillary needle ( 15 μm in diameter at the tip) attached to a microinjector. Phenol red (0.2%) was routinely used for all injections to ensure accurate injection into the heart cavity. All larvae were anaesthetized with tricaine during the injection and returned to fresh fish water before analysis. Fluorescence was observed using a stereomicroscope with a GFP specific filter set. […] The counts were done for sections of the larvae (FIG. 2) and later totaled for the larvae. […] In these experiments (morpholino), control larvae (ADP alone) had no moving platelets."}, "[2]": {"system": "ADP-induced platelet aggregation", "assay": "In vivo anti-thrombotic assay: ADP-induced aggregate formation in TG(GPIIb:eGFP) larvae", "design": "species or system zebrafish", "conditions": "for platelet aggregation in zebrafish (summary statement): in vivo", "protocol": "as §1"}, "GPIIb mRNA": {"system": "GPIIb mRNA", "assay": "GPIIb morpholino knockdown in ADP thrombosis assay", "assay_type": "in vivo, zebrafish", "conditions": "2.4 ng morpholino at 1-4 cell stage, 90 pmol ADP at 5-6 dpf, n=34", "text": "(§2) For some experiments (aspirin, Reopro, Integrilin, Ticlopidine and hirudin), larvae were scored according to the number of stationary platelets observed. The counts were done for sections of the larvae (FIG. 2) and later totaled for the larvae. […] In these experiments (morpholino), control larvae (ADP alone) had no moving platelets.\n(§3) P2Y12 (5′-[…]-3′) and GPIIb (5′-[…]-3′) morpholinos were purchased from Gene Tools (Philomath, Oreg.). Both of these morpholinos were designed to recognize the first 25 bases of coding sequence. Morpholino—(0.1 mM stock contained in 0.2% phenol red) or mock—(0.2% phenol red) injections were performed in one to four cell stage of homozygous TG(GPIIb:eGFP) zebrafish. These embryos were checked 2-4 hours after injection to eliminate non-fertilized or poorly developed eggs. The embryos were placed into Holtfretter's solution at 27° C. until used in the thrombosis assay (5-6 dpf). For the thrombosis assay, larvae were injected with 90 pmol of ADP, a concentration that immobilized all platelets in the larvae. A positive or negative effect was designated for each larva when there were moving or no moving platelets, respectively, after ADP challenge."}, "P2Y12 mRNA": {"system": "P2Y12 mRNA", "assay": "P2Y12 morpholino knockdown in ADP thrombosis assay", "assay_type": "in vivo, zebrafish", "conditions": "2.4 ng morpholino, 90 pmol ADP", "text": "as §2, §3"}, "[3]": {"conditions": "thrombin 3.38 ng (0.018 NIH unit)"}, "[4]": {"conditions": "5 dpf larvae soaked overnight in varying concentrations, 90 pmol ADP next day"}, "[5]": {"conditions": "Plavix approximately 0.2-1 μg/ml overnight"}, "[6]": {"conditions": "GPIIb-eGFP transgenic (homozygous), zebrafish, in vivo"}}, "note": "“Also recorded” adds a separate entry of the source. Like-named read-outs stand apart in the source and are kept apart here. Bridge positions count the residues as written; N and C are the ends. Square brackets hold non-standard residues; d marks the D form. Peptide text beside a SMILES is read from it. hArg = N=C(N)NCCCC[C@H](N)C(=O)O; Mpa = O=C(O)CCS", "data": [{"compound": "Nc1ncnc2c1ncn2[C@@H]1O[C@H](COP(=O)(O)OP(=O)(O)O)[C@@H](O)[C@H]1O", "note": "[ADP]", "values": [{"measurement": "lethality (beating heart)", "setting": "zebrafish larvae; 90 pmol ADP into heart cavity", "result": "not lethal"}, {"measurement": "time within which the larva died", "setting": "zebrafish larvae; 180 pmol ADP into heart cavity, n=8", "result": "5 to 10", "unit": "min"}, {"measurement": "number of macroaggregates compared with phenol red-injected group", "setting": "platelets; 90 pmol ADP", "result": "not significant"}, {"measurement": "platelet movement after injection", "setting": "platelets; 90 pmol ADP into heart cavity", "result": "most or all of the platelets within the larvae stopped moving; also recorded: a complete inhibition of platelet movement was observed"}, {"measurement": "time until platelets stopped moving", "setting": "platelets; 90 pmol ADP into heart cavity", "result": "≤ 5", "unit": "min"}, {"measurement": "microaggregates found in each injected larva", "setting": "platelets; 90 pmol ADP into heart cavity, 6-7 dpf larvae, n=16", "result": "about 38±3 microaggregates"}, {"measurement": "duration of the effect", "setting": "platelets; 90 pmol ADP, observed for up to 8 hours", "result": "several hours"}, {"measurement": "platelet movement after injection", "setting": "platelets; ADP, concentrations lower than 90 pmol", "result": "did not induce a complete inhibition of platelet movement"}]}, {"compound": "hirudin", "values": [{"measurement": "thrombin-induced aggregate formation", "setting": "[1]; hirudin 0.029 unit given simultaneously with thrombin 0.018 NIH unit", "result": "no aggregation was observed; also recorded: inhibited"}, {"measurement": "ADP-induced aggregation", "setting": "[2]; hirudin 0.029 unit, 90 pmol ADP", "result": "did not have any effect"}]}, {"compound": "thrombin", "values": [{"measurement": "duration of arrested platelet movement", "setting": "platelets; [3]", "result": 30, "unit": "min"}, {"measurement": "time after which platelets began to move more freely", "setting": "platelets; [3]", "result": "≤ 25", "unit": "min"}, {"measurement": "platelet aggregation / arrest after injection", "setting": "platelets; thrombin 3.38 ng (0.018 NIH unit) into heart cavity", "result": "induced platelet aggregation; also recorded: most of the platelets were arrested"}, {"measurement": "platelets arrested", "setting": "platelets; thrombin 3.38 ng (0.018 NIH unit), 5 min after injection, n=15", "result": "85-90%"}, {"measurement": "platelet mobility (recovery)", "setting": "platelets; thrombin 3.38 ng, within an hour after injection", "result": "most platelets were mobile"}]}, {"compound": "Reopro: human/murine chimeric antibody, GPIIb/IIIa antagonist", "values": [{"measurement": "ADP-induced microaggregate formation", "setting": "[2]; Reopro 0.5-5 μg/ml overnight soak plus 120 ng injected 10 min before ADP", "result": "dose-dependently inhibited"}, {"measurement": "ADP-induced aggregation of platelets", "setting": "[2]; Reopro injection alone (120 ng or less), no overnight soak", "result": "did not antagonize"}, {"measurement": "ADP-induced microaggregate formation", "setting": "[2]; Reopro overnight soak plus 60 ng injected", "result": "no effect"}]}, {"compound": "CNC[C@H](O)c1ccc(O)c(O)c1", "note": "[epinephrine]", "values": [{"measurement": "effect of collagen on platelet aggregation", "setting": "platelets; epinephrine 18 pg in conjunction with collagen", "result": "did not enhance"}]}, {"compound": "CC1CC(=O)NN=C1c1cc(-n2ccnc2)cs1", "note": "(centres unmarked) [motapizone]", "values": [{"measurement": "ADP-induced aggregation", "setting": "[2]; motapizone 50 μM overnight soak", "result": "Partial inhibition"}, {"measurement": "ADP-induced microaggregate formation", "setting": "[2]; motapizone 250 and 100 μM, overnight soak of 5 dpf larvae", "result": "effective in blocking"}, {"measurement": "action of ADP on platelet aggregation", "setting": "[2]; motapizone injected 5 min before ADP challenge", "result": "ineffective"}, {"measurement": "ADP-induced aggregation", "setting": "[2]; motapizone, concentrations lower than 50 μM", "result": "ineffective"}, {"measurement": "platelet aggregation in zebrafish (summary statement)", "setting": "[2]", "result": "decreases platelet aggregation"}, {"measurement": "platelet aggregation in zebrafish (summary statement)", "setting": "[2]; listed as Motapizone", "result": "effective in reducing"}]}, {"compound": "N=C(N)NCCCC[C@@H]1NC(=O)CCSSC[C@@H](C(N)=O)NC(=O)[C@@H]2CCCN2C(=O)[C@H](Cc2c[nH]c3ccccc23)NC(=O)[C@H](CC(=O)O)NC(=O)CNC1=O", "note": "[Integrilin, eptifibatide] ([Mpa][hArg]GDWPC-NH2; disulfide 1-7)", "values": [{"measurement": "survival after overnight treatment", "setting": "zebrafish larvae; Integrilin 5 mg/ml", "result": "all larvae died"}, {"measurement": "ADP-induced microaggregate formation", "setting": "[2]; [4]", "result": "dose-dependent inhibition; also recorded: dose-dependently prevented"}, {"measurement": "number of platelet aggregates compared to control group", "setting": "[2]; Integrilin 0.25-1.0 mg/ml overnight soak", "result": "no change"}]}, {"compound": "5′-GACTGAATTCCAGTTTCTTGTCCAT-3′ (morpholino backbone, further chemistry not given here) [GPIIb morpholino]", "values": [{"measurement": "tested larvae with moving platelets after ADP injection", "setting": "GPIIb mRNA", "result": 76.5, "unit": "%"}]}, {"compound": "5′-AGCTGAGCTGCGTTGTTTGCTCCAT-3′ (morpholino, further chemistry not given here) [P2Y12 morpholino]", "values": [{"measurement": "effectiveness (larvae with moving platelets after ADP)", "setting": "P2Y12 mRNA", "result": 50, "unit": "%"}]}, {"compound": "CCCCS(=O)(=O)N[C@@H](Cc1ccc(OCCCCC2CCNCC2)cc1)C(=O)O", "note": "[Aggrastat, tirofiban]", "values": [{"measurement": "ADP-induced aggregation", "setting": "[2]; Aggrastat 100 μg/ml soak 24 hours plus 240 ng injected 10 min before ADP", "result": "inhibited"}, {"measurement": "ADP-induced aggregation", "setting": "[2]; Aggrastat 10-50 μg/ml overnight", "result": "ineffective"}, {"measurement": "ADP-induced aggregate formation", "setting": "[2]; Aggrastat soaking alone or injection alone", "result": "did not antagonize"}]}, {"compound": "CC(=O)Oc1ccccc1C(=O)O", "note": "[aspirin, acetylsalicylic acid]", "values": [{"measurement": "survival after overnight treatment", "setting": "zebrafish larvae; aspirin 125 μg/ml", "result": "the larvae died"}, {"measurement": "effect on platelet movement or development of the larvae", "setting": "zebrafish larvae; aspirin alone", "result": "no adverse effect"}, {"measurement": "ADP-induced microaggregate formation", "setting": "[2]; [4]", "result": "prevented"}, {"measurement": "microaggregate count within control phenol red-injected larvae", "setting": "[2]; aspirin 115 μg/ml, no ADP", "result": "trend toward a decrease"}, {"measurement": "ADP-induced microaggregate formation", "setting": "[2]; aspirin 95 and 105 μg/ml, overnight soak before ADP challenge", "result": "partially prevented"}, {"measurement": "platelet aggregation in zebrafish (summary statement)", "setting": "[2]", "result": "effective at inhibiting"}]}, {"compound": "COC(=O)[C@H](c1ccccc1Cl)N1CCc2sccc2C1", "note": "[Plavix, Clopidogrel]", "values": [{"measurement": "aggregation induced by a high concentration of thrombin", "setting": "[1]; [5]", "result": "not effective"}, {"measurement": "lethal dose", "setting": "zebrafish larvae; [6]", "result": "≥ 5", "unit": "µg/mL"}, {"measurement": "ADP-induced aggregate formation", "setting": "[2]; [5]", "result": "partial inhibition"}, {"measurement": "platelet aggregation in zebrafish (summary statement)", "setting": "[2]", "result": "effective at inhibiting"}]}, {"compound": "Clc1ccccc1CN1CCc2sccc2C1", "note": "[Ticlopidine]", "values": [{"measurement": "concentration at which larvae did not survive the overnight treatment", "setting": "zebrafish larvae; [6]", "result": "≥ 10", "unit": "µM"}]}]}
